Patent US6420572B1, “Synthetic methods for preparation of protected proanthocyanidin(s)” (Mars, Incorporated, priority 1997, dated 2002)
“Also recorded” adds a separate entry of the source. Where two headings read alike, the source gives them in different places.

System: human breast cancer cell lines (MDA MB 231, MDA MB 435, MCF-7)
Test: Cytotoxic activity: cell proliferation (crystal violet staining) of human breast cancer cell lines
Protocol: All human tumor cell lines were obtained from the American Type Culture Collection. Cells were grown as monolayers in IMEM containing 10% fetal bovine serum without antibiotics. The cells were maintained in a humidified, 5% CO2 atmosphere at 37° C.
After trypsinization, the cells were counted and adjusted to a concentration of 1,000-2,000 cells per 100 mL. Cell proliferation was determined by plating the cells (1,000-2,000 cells/well) in a 96 well microtiter plate. After addition of 100 μL cells per well, the cells were allowed to attach for 24 hours. […] The polyphenols were dissolved in media at a 2 fold concentration and 100 μL of each solution was added in triplicate wells. On consecutive days, the plates were stained with 50 μL crystal violet (2.5 g crystal violet dissolved in 125 mL methanol, 375 mL water), for 15 min. The stain was removed and the plate was gently immersed into cold water to remove excess stain. The washings were repeated two more times, and the plates allowed to dry. The remaining stain was solubilized by adding 100 μL of 0.1 M sodium citrate/50% ethanol to each well. After solubilization, the number of cells were quantitated on an ELISA plate reader at 540 nm (reference filter at 410 nm).
Error bars represent +/− standard deviation of three replicate measurements.

[1] = breast cancer cell lines investigated, four days, various μg/mL concentrations, FIG. 1(a)-(d)

| Structure (SMILES) | cytotoxicity (cancer cell line growth at the end of four days as percent growth of the control) | cytotoxicity (cancer cell line growth at the end of four days as percent growth of the control) [1] | antineoplastic activity against several human breast cancer cell lines (comparison in words) (in vitro assessment of Example 25) |
| --- | --- | --- | --- |
| Oc1cc(O)c2c(c1)O[C@H](c1ccc(O)c(O)c1)[C@H](O)[C@H]2c1c(O)cc(O)c2c1O[C@H](c1ccc(O)c(O)c1)[C@H](O)C2 [synthetic epicatechin dimer, EC-(4β→8)-EC] | no cytotoxicity | – | – |
| Oc1cc(O)c2c(c1)O[C@H](c1ccc(O)c(O)c1)[C@H](O)C2 [monomer (epicatechin), epicatechin, reference compound] | – | no cytotoxicity | – |
| O=C(OC1Cc2c(O)cc(O)c(C3c4c(O)cc(O)c(C5c6c(O)cc(O)cc6OC(c6ccc(O)c(O)c6)C5OC(=O)c5cc(O)c(O)c(O)c5)c4OC(c4ccc(O)c(O)c4)C3OC(=O)c3cc(O)c(O)c(O)c3)c2OC1c1ccc(O)c(O)c1)c1cc(O)c(O)c(O)c1 (stereo not drawn) [synthetic epicatechin trimer trisgallate, [EC-3-O-galloyl-(4β→8)]2-EC-3-O-gallate] | – | cytotoxic effect equivalent to the pentamer and/or epigallocatechin gallate | activity equivalent to the pentamer; also recorded: greater antineoplastic activity when compared to the underivatized dimer and trimer |
